# Reference: PubChem BioAssay AID260 (DTP/NCI, 2004)
# Several values for one entry are separate records, joined by “and”; a condition that tells them apart may be missing. Equal values may be shown once. Toxic doses and inconclusive results are not listed.
# Tested on: CD2F1 mice, intracerebral L1210 leukemia, survival T/C
# Assay: NCI In Vivo Anticancer Drug Screen. Data for tumor model L1210 Leukemia (intracerebral) in CD2F1 (CDF1) mice
# Conditions: higher = longer survival
# Experimental: The antitumor activity of compounds was measured in mice bearing transplantable tumors. Survival or tumor size were measured and the results are expressed as the measurement made in the treated group (T) divided by the measurement made in the vehicle treated control group (C). The tumor model used in this assay is L1210 Leukemia (intracerebral) in CD2F1 (CDF1) mice
# [1] = endpoint: median survival time, dose: 1.0 mg/kg/injection, schedule: Q01DX009 (ip), vehicle: saline with Tween-80
# [2] = endpoint: median survival time, dose: 2.0 mg/kg/injection, schedule: Q01DX009 (ip), vehicle: saline with Tween-80
# [3] = endpoint: median survival time, dose: 4.0 mg/kg/injection, schedule: Q01DX009 (ip), vehicle: saline with Tween-80
# [4] = endpoint: median survival time, dose: 8.0 mg/kg/injection, schedule: Q01DX009 (ip), vehicle: saline with Tween-80
# [5] = endpoint: median survival time, dose: 16.0 mg/kg/injection, schedule: Q01DX009 (ip), vehicle: saline with Tween-80
# [6] = endpoint: median survival time, dose: 32.0 mg/kg/injection, schedule: Q01DX009 (ip), vehicle: saline with Tween-80
# [7] = endpoint: median survival time, dose: 32.0 mg/kg/injection, schedule: Q01DX005 (ip), vehicle: saline with Tween-80
# [8] = endpoint: median survival time, dose: 16.0 mg/kg/injection, schedule: Q01DX005 (ip), vehicle: saline with Tween-80
# [9] = endpoint: median survival time, dose: 64.0 mg/kg/injection, schedule: Q01DX005 (ip), vehicle: saline with Tween-80
# [10] = endpoint: median survival time, dose: 1.0 mg/kg/injection, schedule: Q01DX009 (ip), vehicle: saline
# [11] = endpoint: median survival time, dose: 2.0 mg/kg/injection, schedule: Q01DX009 (ip), vehicle: saline
structure (smiles),measurement,setting,value
NC(C/[N+]([O-])=N/O)C(=O)O (centres undefined),T/C,[1],98 % of control
same,T/C,[2],105 % of control
same,T/C,[3],101 % of control
same,T/C,[4],101 % of control
same,T/C,[5],102 % of control
same,T/C,[6],104 % of control
same,T/C,"endpoint: median survival time, dose: 56.25 mg/kg/injection, schedule: Q01DX009 (ip), vehicle: saline",115 % of control
same,T/C,"endpoint: median survival time, dose: 100.0 mg/kg/injection, schedule: Q01DX009 (ip), vehicle: Klucel (hydroxypropylcellulose) (HPC)",110 % of control and 112 % of control
same,T/C,"endpoint: median survival time, dose: 112.5 mg/kg/injection, schedule: Q01DX009 (ip), vehicle: saline",89 % of control
same,T/C,"endpoint: median survival time, dose: 200.0 mg/kg/injection, schedule: Q01DX009 (ip), vehicle: Klucel (hydroxypropylcellulose) (HPC)",86 % of control and 87 % of control
same,T/C,"endpoint: median survival time, dose: 225.0 mg/kg/injection, schedule: Q01DX009 (ip), vehicle: saline",89 % of control
CN(Cc1ccccc1)/N=N/c1nc[nH]c1C(N)=O,T/C,[7],112 % of control
same,T/C,"endpoint: median survival time, dose: 512.0 mg/kg/injection, schedule: Q01DX005 (ip), vehicle: saline with Tween-80",94 % of control
C[C@]12C=CC(=O)C=C1CC[C@@H]1[C@@H]2CC[C@]2(C)OC(=O)CC[C@@H]12,T/C,[4],95 % of control and 111 % of control
same,T/C,[5],98 % of control and 102 % of control
same,T/C,[6],101 % of control and 102 % of control
same,T/C,"endpoint: median survival time, dose: 64.0 mg/kg/injection, schedule: Q01DX009 (ip), vehicle: saline with Tween-80",93 % of control and 102 % of control
same,T/C,"endpoint: median survival time, dose: 128.0 mg/kg/injection, schedule: Q01DX009 (ip), vehicle: saline with Tween-80",90 % of control and 98 % of control
same,T/C,"endpoint: median survival time, dose: 256.0 mg/kg/injection, schedule: Q01DX009 (ip), vehicle: saline with Tween-80",90 % of control and 98 % of control
COC(=O)c1ccccc1N=NN(C)C,T/C,"endpoint: mean survival time, dose: 2.5 mg/kg/injection, schedule: Q01DX007 (ip), vehicle: other",91 % of control
same,T/C,"endpoint: mean survival time, dose: 5.0 mg/kg/injection, schedule: Q01DX007 (ip), vehicle: other",100 % of control
same,T/C,"endpoint: mean survival time, dose: 10.0 mg/kg/injection, schedule: Q01DX007 (ip), vehicle: other",106 % of control
CCCCCN(C)/N=N/c1nc[nH]c1C(N)=O,T/C,[8],112 % of control
same,T/C,[7],122 % of control
same,T/C,"endpoint: median survival time, dose: 256.0 mg/kg/injection, schedule: Q01DX005 (ip), vehicle: saline with Tween-80",92 % of control
Nc1nncs1,T/C,"endpoint: median survival time, dose: 7.5 mg/kg/injection, schedule: Q01DX009 (ip), vehicle: Klucel (hydroxypropylcellulose) (HPC)",113 % of control
same,T/C,"endpoint: median survival time, dose: 60.0 mg/kg/injection, schedule: Q01DX009 (ip), vehicle: Klucel (hydroxypropylcellulose) (HPC)",112 % of control
same,T/C,[9],118 % of control and 121 % of control and 116 % of control
COc1cccc2c1C(=O)c1c(O)c3c(c(O)c1C2=O)C[C@@](O)(/C(C)=N/NC(=O)c1ccccc1)C[C@@H]3OC1CC(N)C(O)C(C)O1 (some centres undefined),T/C,[1],114 % of control
same,T/C,[10],98 % of control and 104 % of control
same,T/C,[2],123 % of control
same,T/C,[11],103 % of control and 104 % of control
same,T/C,[3],123 % of control
same,T/C,"endpoint: median survival time, dose: 4.0 mg/kg/injection, schedule: Q01DX009 (ip), vehicle: saline",106 % of control and 110 % of control
same,T/C,[4],101 % of control
same,T/C,"endpoint: median survival time, dose: 8.0 mg/kg/injection, schedule: Q01DX009 (ip), vehicle: saline",92 % of control and 116 % of control
same,T/C,[5],89 % of control
COc1ccc(CC2C(=O)NC(C)C(=O)N(C)C3C(=O)N(C)C(Cc4ccc(O)c(c4)Oc4ccc(cc4)C3O)C(=O)NC(C)C(=O)NC(C)C(=O)N2C)cc1 (centres undefined),T/C,"endpoint: median survival time, dose: 0.12 mg/kg/injection, schedule: Q01DX009 (ip), vehicle: Klucel (hydroxypropylcellulose) (HPC)",101 % of control
same,T/C,"endpoint: median survival time, dose: 0.13 mg/kg/injection, schedule: Q01DX009 (ip), vehicle: saline",93 % of control and 117 % of control
same,T/C,"endpoint: median survival time, dose: 0.25 mg/kg/injection, schedule: Q01DX009 (ip), vehicle: Klucel (hydroxypropylcellulose) (HPC)",93 % of control and 101 % of control
same,T/C,"endpoint: median survival time, dose: 0.25 mg/kg/injection, schedule: Q01DX009 (ip), vehicle: saline",124 % of control and 91 % of control
same,T/C,"endpoint: median survival time, dose: 0.5 mg/kg/injection, schedule: Q01DX009 (ip), vehicle: Klucel (hydroxypropylcellulose) (HPC)",98 % of control and 100 % of control
same,T/C,"endpoint: median survival time, dose: 0.5 mg/kg/injection, schedule: Q01DX009 (ip), vehicle: saline",124 % of control and 111 % of control
same,T/C,"endpoint: median survival time, dose: 1.0 mg/kg/injection, schedule: Q01DX009 (ip), vehicle: Klucel (hydroxypropylcellulose) (HPC)",97 % of control and 100 % of control
same,T/C,[10],104 % of control and 107 % of control
same,T/C,[11],109 % of control and 111 % of control
CN(N=O)C(=O)Nc1c[nH]c(=O)[nH]c1=O,T/C,"endpoint: median survival time, dose: 8.0 mg/kg/injection, schedule: Q01DX005 (ip), vehicle: saline with Tween-80",100 % of control
same,T/C,[8],103 % of control
same,T/C,[7],100 % of control
same,T/C,[9],110 % of control
same,T/C,"endpoint: median survival time, dose: 128.0 mg/kg/injection, schedule: Q01DX005 (ip), vehicle: saline with Tween-80",119 % of control
CC[C@H]1CN2CCc3cc(OC)c(OC)cc3[C@@H]2C[C@@H]1C[C@H]1NCCc2cc(OC)c(OC)cc21,T/C,"endpoint: median survival time, dose: 2.0 mg/kg/injection, schedule: Q01DX005 (ip), vehicle: Klucel (hydroxypropylcellulose) (HPC)",98 % of control
same,T/C,"endpoint: median survival time, dose: 4.0 mg/kg/injection, schedule: Q01DX005 (ip), vehicle: Klucel (hydroxypropylcellulose) (HPC)",101 % of control
same,T/C,"endpoint: median survival time, dose: 8.0 mg/kg/injection, schedule: Q01DX005 (ip), vehicle: Klucel (hydroxypropylcellulose) (HPC)",115 % of control
C[C@]12CCC(=O)C=C1CC[C@@H]1[C@@H]2[C@@H](O)C[C@@]2(C)[C@H]1CC[C@]2(O)C(=O)COP(=O)(O)OCC1OC(n2ccc(N)nc2=O)C(O)C1O (some centres undefined),T/C,"endpoint: median survival time, dose: 18.75 mg/kg/injection, schedule: Q01DX005 (ip), vehicle: other",116 % of control
same,T/C,"endpoint: median survival time, dose: 150.0 mg/kg/injection, schedule: Q01DX005 (ip), vehicle: other",160 % of control
same,T/C,"endpoint: median survival time, dose: 300.0 mg/kg/injection, schedule: Q01DX005 (ip), vehicle: other",169 % of control
CC(=O)NNC(=O)c1ccccn1,T/C,"endpoint: median survival time, dose: 100.0 mg/kg/injection, schedule: Q01DX005 (ip), vehicle: Klucel (hydroxypropylcellulose) (HPC)",103 % of control
same,T/C,"endpoint: median survival time, dose: 200.0 mg/kg/injection, schedule: Q01DX005 (ip), vehicle: Klucel (hydroxypropylcellulose) (HPC)",105 % of control
N#[N+]c1nc[nH]c1C(N)=O,T/C,"endpoint: median survival time, dose: 2.0 mg/kg/injection, schedule: Q01DX005 (ip), vehicle: saline",112 % of control
same,T/C,"endpoint: median survival time, dose: 4.0 mg/kg/injection, schedule: Q01DX005 (ip), vehicle: saline",105 % of control
same,T/C,"endpoint: median survival time, dose: 8.0 mg/kg/injection, schedule: Q01DX005 (ip), vehicle: saline",107 % of control
same,T/C,"endpoint: median survival time, dose: 16.0 mg/kg/injection, schedule: Q01DX005 (ip), vehicle: saline",105 % of control
same,T/C,"endpoint: median survival time, dose: 32.0 mg/kg/injection, schedule: Q01DX005 (ip), vehicle: saline",105 % of control
same,T/C,"endpoint: median survival time, dose: 64.0 mg/kg/injection, schedule: Q01DX005 (ip), vehicle: saline",101 % of control
CN(N=O)C(N)=O,T/C,"endpoint: median survival time, dose: 0.5 mg/kg/injection, schedule: Q01DX009 (ip), vehicle: saline + alcohol",98 % of control
same,T/C,"endpoint: median survival time, dose: 1.0 mg/kg/injection, schedule: Q01DX009 (ip), vehicle: saline + alcohol",105 % of control
same,T/C,"endpoint: median survival time, dose: 2.0 mg/kg/injection, schedule: Q01DX009 (ip), vehicle: saline + alcohol",105 % of control
same,T/C,"endpoint: median survival time, dose: 2.5 mg/kg/injection, schedule: Q01DX001 (ip), vehicle: saline",89 % of control
same,T/C,"endpoint: median survival time, dose: 4.0 mg/kg/injection, schedule: Q01DX009 (ip), vehicle: saline + alcohol",114 % of control
same,T/C,"endpoint: median survival time, dose: 5.0 mg/kg/injection, schedule: Q01DX001 (ip), vehicle: saline",92 % of control
same,T/C,"endpoint: median survival time, dose: 10.0 mg/kg/injection, schedule: Q01DX001 (ip), vehicle: saline + alcohol",102 % of control
same,T/C,"endpoint: median survival time, dose: 10.0 mg/kg/injection, schedule: Q01DX001 (ip), vehicle: saline",94 % of control
same,T/C,"endpoint: median survival time, dose: 16.0 mg/kg/injection, schedule: Q01DX009 (ip), vehicle: saline + alcohol",196 % of control
same,T/C,"endpoint: median survival time, dose: 20.0 mg/kg/injection, schedule: Q01DX001 (ip), vehicle: saline + alcohol",105 % of control
same,T/C,"endpoint: median survival time, dose: 20.0 mg/kg/injection, schedule: Q01DX001 (ip), vehicle: saline",103 % of control
same,T/C,"endpoint: median survival time, dose: 40.0 mg/kg/injection, schedule: Q01DX001 (ip), vehicle: saline + alcohol",107 % of control
same,T/C,"endpoint: median survival time, dose: 40.0 mg/kg/injection, schedule: Q01DX001 (ip), vehicle: saline",121 % of control
same,T/C,"endpoint: median survival time, dose: 80.0 mg/kg/injection, schedule: Q01DX001 (ip), vehicle: saline + alcohol",112 % of control
same,T/C,"endpoint: median survival time, dose: 80.0 mg/kg/injection, schedule: Q01DX001 (ip), vehicle: saline",110 % of control
NC(=O)CNC1=C(N2CC2)C(=O)C(NCC(N)=O)=C(N2CC2)C1=O,T/C,"endpoint: mean survival time, dose: 2.5 mg/kg/injection, schedule: Q01DX009 (ip), vehicle: saline",101 % of control and 116 % of control
same,T/C,"endpoint: mean survival time, dose: 5.0 mg/kg/injection, schedule: Q01DX009 (ip), vehicle: saline",110 % of control and 113 % of control
same,T/C,"endpoint: mean survival time, dose: 10.0 mg/kg/injection, schedule: Q01DX009 (ip), vehicle: saline",105 % of control and 116 % of control
same,T/C,"endpoint: mean survival time, dose: 15.0 mg/kg/injection, schedule: Q01DX009 (ip), vehicle: saline",101 % of control and 113 % of control
